Read-outs that look alike come from different tables or passages of the source.
Assays:
[1] = tested on: 661W cells expressing CNGA3 plus CNGB3 T383fsX; settings: for relative cytotoxicity (LDH release, normalized to untreated vector-only control): 24 h
Experimental: (§1) The mouse photoreceptor 661W cell line used in this study was generously provided by Dr. Al-Ubaidi (University of Oklahoma Health Sciences Center, Oklahoma City, OK). The 661W cells were routinely maintained in Dulbecco’s modified Eagle’s medium (Gibco, Carlsbad, CA), supplemented with 10% fetal bovine serum (Gemini Bioproducts, Sacramento, CA) and 1% penicillin/streptomycin (Gibco), at 37 °C in a humidified incubator with 5% CO2; cells were subcultured every 3–5 days. The 661W cells were transfected with pOPRSVI plasmids encoding human cone CNG channel subunits using Lipofectamine™ 2000 and OptiMEM (Life Technologies, Carlsbad, CA) according to the manufacturer’s protocol for cells in suspension. A reporter plasmid—a green fluorescent protein-expressing vector (pQBI25-fC2, Wako Pure Chemical Industries, Ltd., Japan) using a constitutive CMV promoter—was transfected under the same conditions to assess transfection efficiency. […] In addition, the pOPRSVI plasmid was transfected alone as a negative control. The amounts of each vector were as follows (µg/10 cm^2 culture surface): 2 FLAG- or GFP-CNGA3 plus 2 FLAG-CNGB3 (WT, T383fsX or F525N); 4 GFP; or 4 pOPRSVI.
(§2) For most experiments, the LDH Cytotoxicity Detection Kit (Roche Applied Science) was used according to the manufacturer’s protocol (see also [37]). Briefly, cultured 661W cells were transfected with the desired plasmid constructs as described above and then plated in 96-well tissue culture plates at a density of approximately 8×10^3 cells/well. Forty-eight hours after transfection, cells were treated with various concentrations of CPT-cGMP and/or CPT-cAMP (Sigma-Aldrich) alone or together with L-cis-diltiazem (Enzo Life Sciences, Inc., Farmingdale, NY) in Dulbecco’s modified Eagle’s medium supplemented with 1% fetal bovine serum for 24 h at 37 °C. Following treatment, half of the culture medium was transferred to another 96-well plate and the LDH released into the culture medium was measured to assess the number of damaged/dead cells. Cells in the original plate were then lysed and the total amount of cellular LDH was assessed. The percentage cytotoxicity was then calculated from the ratio of LDH concentration in the medium/cells, and was normalized to the percentage cytotoxicity in untreated cells transfected with control pOPRSVI plasmid only.

[2] = tested on: 661W cells expressing CNGA3 plus CNGB3 F525N; settings: 24 h
Experimental: as §1, §2

[3] = 10 µM CPT-cAMP combined with 0.1 µM CPT-cGMP

Row | SMILES | relative cytotoxicity (LDH release, normalized to untreated vector-only control) [1, 3] | effect on relative cytotoxicity compared to CPT-cGMP treatment alone ([1]; various concentrations of CPT-cAMP coapplied with 0.1 µM CPT-cGMP) | relative cytotoxicity (LDH release, normalized to untreated vector-only control) ([2]; 1 µM CPT-cAMP coapplied with 0.1 µM CPT-cGMP) | relative cytotoxicity (LDH release, normalized to untreated vector-only control) [2, 3] | relative cytotoxicity (LDH release, normalized to untreated vector-only control) ([1]; 0.1 µM CPT-cGMP) | relative cytotoxicity (LDH release, normalized to untreated vector-only control) ([2]; 0.1 µM CPT-cGMP alone)
1 | Nc1ncnc2c1nc(Sc1ccc(Cl)cc1)n2[C@@H]1O[C@@H]2COP(=O)(O)O[C@H]2[C@H]1O [CPT-cAMP, CPT-adenosine 3′,5′-cyclic monophosphate] | 1.30±0.05 | unaltered | 1.31±0.06 | 1.67±0.08 |  | 
2 | Nc1nc2c(nc(Sc3ccc(Cl)cc3)n2[C@@H]2O[C@@H]3COP(=O)(O)O[C@H]3[C@H]2O)c(=O)[nH]1 [CPT-cGMP, 8-(4-chlorophenylthio) guanosine 3′,5′-cyclic monophosphate] |  |  |  |  | 1.26±0.05 | 1.59±0.05
